# EP2548555A1, “Proton pump inhibitors as immunomodulators” (Fondazione IRCCS Istituto Nazionale dei Tumori, priority 2011, dated 2013)
# Columns and labels:
# B16-OVA melanoma = experiment: Flow cytometry of tumor-infiltrating leukocytes after DC-OVA257-264 vaccination; format: in vivo, mice; conditions: 7-day-old melanomas, DC-OVA257-264 vaccine, PPI i.p. on day 3 post vaccine, analysed after 24h; vs PBS
# [1] = test system: allogenic HLA-matched melanoma cells; conditions: PPI + chemotherapy (CISPLATIN) vs chemotherapy alone
# Description: (§1) We also tested the effect of PPI in advanced melanoma patients receiving high dose esomeprazole (120mg/day for 3 days) in the context of a clinical trial testing the ability of PPI pretreatment to sensitized patients to chemotherapy (CISPLATIN).
# [2] = Dosing experiments for tolerated dose; parameters: species or system mice; conditions: mouse, in vivo; dosing experiments ranging from 1.25-600 mg/kg; read-out: highest tolerated dose
# MDSC in peripheral blood = experiment: Peripheral blood cell frequencies in advanced melanoma patients on high dose esomeprazole; format: in vivo; conditions: esomeprazole 120mg/day for 3 days
# Description: as §1
# B16-OVA cells [3] = experiment: TIL effector function (intracellular IFNγ) after infusion of activated CFSE-labelled OTI cells; format: in vivo, mice
# STAT1 = experiment: pSTAT evaluation in primary monocytes, IFNa stimulation; format: cell-based, human; conditions: pre-treated 3 hours, in response to IFNa (30 min)
# [4] = test system: Primary human monocytes from HD PBMC; format: cell-based
# [5] = test system: transgenic adenocarcinoma of the mouse prostate (TRAMP); experiment: IFN-γ production of prostate-infiltrating tumor-specific T cells after HSCT, DLI and DC-Tag-IV vaccination; format: in vivo, mice; conditions: PPI i.p. 3 days after DC-Tag-IV vaccine, killed after 24 h; vs PBS
# STAT3 [6] = experiment: pSTAT evaluation in primary monocytes, IL6 stimulation; format: cell-based, human; conditions: pre-treated 3 hours, in response to IL6 (30 min)
# STAT3 [7] = experiment: STAT3 phosphorylation state in circulating monocytes of treated patients; format: in vivo, advanced melanoma patients; conditions: with respect to cells obtained prior to PPI administration
# Description: as §1
# B16-OVA melanoma cells = experiment: Tumor extracellular pH (pHe) by magnetic resonance spectroscopy (MRS); format: in vivo, mice; conditions: esomeprazole 12.5 mg/kg i.p.; reached within 60 min; baseline approximately 6.5
# B16-OVA cells [8] = experiment: Functional avidity of tumor CD8+ T cells in the active immunotherapy model (naïve OTI transfer, DC-OVA257-264 vaccine); format: in vivo, mice; conditions: PPI i.p. at day 11, sacrificed 1 day later; vs PBS
# B16-OVA = experiment: Survival with adoptive immunotherapy (activated OTI cells) combined with PPI; format: in vivo, mice
# STAT6 [9] = experiment: pSTAT evaluation in primary monocytes, IL13 stimulation; format: cell-based, human; conditions: pre-treated 3 hours, in response to IL13 (30 min)
# STAT6 [10] = experiment: STAT6 phosphorylation state in circulating monocytes of treated patients; format: in vivo, advanced melanoma patients; conditions: with respect to cells obtained prior to PPI administration
# Description: as §1
# circulating monocytes = experiment: Ex-vivo cytokine secretion by circulating monocytes of treated patients; format: in vivo, advanced melanoma patients; conditions: after 3 days of high dose PPI treatment
# Description: as §1
# B16 melanoma = experiment: Survival of mice bearing B16 melanoma not expressing OVA (OTI control; TBI plus TRP-2-sensitized splenocytes); format: in vivo
structure (smiles),measurement,setting,value
COc1ccc2nc([S@@+]([O-])Cc3ncc(C)c(OC)c3C)[nH]c2c1 [esomeprazole],inflammatory infiltrate of the tumor mass,B16-OVA melanoma,did not substantially modify
same,tumor immunity in peripheral blood,[1],significant increase
same,MTD,[2],12.5 mg/kg
same,frequency of MDSC in peripheral blood,MDSC in peripheral blood,significantly and rapidly decreases
same,"total CD14+, CD3+, CD4+, CD19+ cells or granulocytes in peripheral blood",MDSC in peripheral blood,no change
same,frequency of CFSE+ OT-1 cells,"B16-OVA cells [3]; 12-day-old melanoma, PPI 24h after OTI infusion, sacrificed 1 day later, vs PBS",comparable
same,percentage of CD44+CD8+IFNY+ T cells in tumor-derived CFSE+ T cells,"B16-OVA cells [3]; 12-day-old melanoma, PPI 24h after OTI infusion, vs PBS",significantly enhanced
same,"IFNY production by CD8+CD44+ T cells isolated from the spleen, lung and kidney","B16-OVA cells [3]; CFSE+ and CFSE- subsets, PPI- vs PBS-treated groups",did not differ
same,IFNY production in CFSE- TILs,"B16-OVA cells [3]; endogenous T cells, PPI-treated vs PBS-treated mice",higher IFNY production
same,STAT1 phosphorylation,STAT1,inhibit
same,"release of cytokines/chemokines such as IL-8, GRO and MCD","[4]; PPI pretreatment, data not shown",did not affect
same,cytokine/chemokine secretion,"[4]; esomeprazole 100 µg/ml pre-treatment 3 hours, then mel-EXO 100 µg for 24 hours",significantly reduced
same,population of TIL specifically reacting against the tumor antigen (CD44+IFN-γ+ within CD8+),[5],markedly increased
same,STAT3 phosphorylation,STAT3 [6],inhibit
same,reduction in STAT3 phosphorylation state,STAT3 [7],20%
same,tumor pHe,B16-OVA melanoma cells,7.0
same,increase in ability of magnetic bead sorted CD8+ T cells to recognize OVA257-264,B16-OVA cells [8],by at least one log
same,animal survival,"B16-OVA; 8-day melanoma, combined treatment with PPI (12.5 mg/kg) and OTI cells, relative to PBS alone",doubling in the overall survival rate
same,tumor growth inhibition,B16-OVA; PPI administered before OTI adoptive transfer,equal tumor growth inhibition
same,STAT6 phosphorylation,STAT6 [9],inhibit
same,reduction in STAT6 phosphorylation state,STAT6 [10],15%
same,ex-vivo secretion of VEGF-A,circulating monocytes; before treatment 120±100,104±58
same,ex-vivo secretion of TGFβ,circulating monocytes; before treatment 1809±900,1502 ± 755 pg/mL
same,survival of mice with B16 melanomas not expressing OVA,B16 melanoma; OTI cells and PPI treatment,did not impact
same,Survival,"B16 melanoma; TBI 600 Rad, TRP-2-sensitized splenocytes plus PPI vs single adoptive transfer of splenocytes only",significantly prolonged
